What was measured:
[1] = molecular target: Tyrosine-protein phosphatase non-receptor type 6, SHP-1 (Homo sapiens) (UniProt P29350); assay: First-order rate constant (K inact) for conversion of the ExI complex (SHP-1 -inhibitor complex) into the covalent adduct, EI was determined using PNP as substrate
[2] = molecular target: Tyrosine-protein phosphatase non-receptor type 6, SHP-1 (Homo sapiens) (UniProt P29350); assay: Dissociation constant towards SHP-1 receptor-inhibitor complex was determined using PNP as substrate
[3] = molecular target: Tyrosine-protein phosphatase non-receptor type 6, SHP-1 (Homo sapiens) (UniProt P29350); assay: Ratio between dissociation constant and First-order rate constant (K inact / Ki) was determined
[4] = molecular target: Tyrosine-protein phosphatase non-receptor type 6, SHP-1 (Homo sapiens) (UniProt P29350); assay: Dissociation constant towards SHP 1 receptor-inhibitor complex was determined using PNP as substrate
[5] = molecular target: Tyrosine-protein phosphatase non-receptor type 6, SHP-1 (Homo sapiens) (UniProt P29350); assay: First-order rate constant (K inact) for conversion of the ExI complex (SHP 1 protein -inhibitor complex) into the covalent adduct, EI was determined using PNP as substrate
[6] = molecular target: T1, Tyrosine-protein phosphatase non-receptor type 1 (Homo sapiens) (UniProt P18031); assay: First-order rate constant (K inact) for conversion of the ExI complex (SHP 1 receptor -inhibitor complex) into the covalent adduct, EI was determined using PNP as substrate
T1 sequence (whole entry): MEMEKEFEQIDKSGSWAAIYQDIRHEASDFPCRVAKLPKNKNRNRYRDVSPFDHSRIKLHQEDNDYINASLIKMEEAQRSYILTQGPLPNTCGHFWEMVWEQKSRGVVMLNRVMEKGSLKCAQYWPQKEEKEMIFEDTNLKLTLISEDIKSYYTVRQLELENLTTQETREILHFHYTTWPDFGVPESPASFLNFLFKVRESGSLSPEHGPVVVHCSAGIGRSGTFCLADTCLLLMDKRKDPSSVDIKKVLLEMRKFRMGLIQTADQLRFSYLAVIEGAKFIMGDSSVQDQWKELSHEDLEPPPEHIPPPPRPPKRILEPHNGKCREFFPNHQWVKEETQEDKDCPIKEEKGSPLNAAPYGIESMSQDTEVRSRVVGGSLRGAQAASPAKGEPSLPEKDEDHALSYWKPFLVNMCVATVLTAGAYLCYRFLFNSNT

[7] = molecular target: T2, Tyrosine-protein phosphatase non-receptor type 6 (Homo sapiens, UniProt P29350)
T2 sequence (P29350 whole entry): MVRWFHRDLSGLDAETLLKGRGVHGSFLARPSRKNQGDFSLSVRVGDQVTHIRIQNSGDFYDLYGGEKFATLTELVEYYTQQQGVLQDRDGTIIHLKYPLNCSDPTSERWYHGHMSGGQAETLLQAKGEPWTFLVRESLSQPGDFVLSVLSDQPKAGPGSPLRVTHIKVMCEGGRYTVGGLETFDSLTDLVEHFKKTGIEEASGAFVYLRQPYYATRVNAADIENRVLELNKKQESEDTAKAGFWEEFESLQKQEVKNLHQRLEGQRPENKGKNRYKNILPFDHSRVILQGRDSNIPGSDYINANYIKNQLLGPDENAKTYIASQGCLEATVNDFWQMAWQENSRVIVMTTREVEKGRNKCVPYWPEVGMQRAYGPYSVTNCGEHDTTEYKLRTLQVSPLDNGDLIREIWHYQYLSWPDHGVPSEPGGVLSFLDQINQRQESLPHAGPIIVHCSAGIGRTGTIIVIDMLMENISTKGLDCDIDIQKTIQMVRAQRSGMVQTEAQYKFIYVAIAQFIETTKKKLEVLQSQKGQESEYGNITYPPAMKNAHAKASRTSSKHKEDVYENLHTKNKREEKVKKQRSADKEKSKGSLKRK

[8] = molecular target: T2, Tyrosine-protein phosphatase non-receptor type 6; assay: Dissociation constant towards SHP 1 receptor-inhibitor complex was determined using PNP as substrate

Tyrosine-protein phosphatase non-receptor type 6, SHP-1 (Homo sapiens), sequence (P29350 whole entry, looked up): as the sequence (P29350 whole entry) above

| Structure (SMILES) | kinact [1] [min⁻¹] | Ki [2] [µM] | Ratio [3] [M⁻¹ min⁻¹] | Ki [4] [µM] | kinact [5] [min⁻¹] | kinact [6] [min⁻¹] | kinact [7] [min⁻¹] | Ki [8] [µM] |
| --- | --- | --- | --- | --- | --- | --- | --- | --- |
| O=C(CBr)c1ccc(-c2ccccc2)cc1 | 0.59 | 14 | 41 | – | – | – | – | – |
| O=C(CBr)c1ccc2ccccc2c1 | 0.48 | 25 | 20000 | – | – | – | – | – |
| O=C(CBr)c1ccc(C(F)(F)F)cc1 | 0.37 | 14 | 26000 | – | – | – | – | – |
| O=C(CBr)c1cccc2ccccc12 | 0.86 | 92 | 9400 | – | – | – | – | – |
| O=C(CBr)c1ccc(-c2ccccc2C(=O)O)cc1 | – | – | 4550 | 220 | 1 | – | – | – |
| O=C(CBr)c1ccc(O)cc1 | 0.4 | 43 | 9300 | – | – | – | – | – |
| N=C(N)NCCCC(NC(=O)[C@H](CCCNC(=N)N)NC(=O)CNC(=O)COc1ccc(C(=O)CBr)cc1)C(=O)O (some centres not stated) | – | – | 6300 | – | – | 4.8 | – | – |
| O=C(CCl)c1ccccc1 [PHENACYL CHLORIDE] | 0.21 | 480 | 430 | – | – | – | – | – |
| NC(N)=NCCCC(NC(=O)[C@H](CCCN=C(N)N)NC(=O)CNC(=O)COc1ccc(C(=O)CBr)cc1)C(=O)O (some centres not stated) | – | – | – | 760 | – | – | – | – |
| O=C(CBr)c1ccccn1 | 1.3 | 173 | 7500 | – | – | – | – | – |
| O=C(CCl)c1ccc(F)cc1F | 2.1 | 17500 | 120 | – | – | – | – | – |
| O=C(CBr)c1ccccc1 | 0.58 | 81 | 7100 | – | – | – | – | – |
| O=C(O)CCC(NC(=O)[C@H](CCC(=O)O)NC(=O)CNC(=O)COc1ccc(C(=O)CBr)cc1)C(=O)O (some centres not stated) | 1.2 | 2.8 | – | – | – | – | 6.6 | 29 |
| O=C(O)COc1ccc(C(=O)CCl)cc1 | 1.8 | 2500 | 710 | – | – | – | – | – |
| O=C(CCl)c1ccc(O)c(O)c1 | 0.59 | 1400 | 420 | – | – | – | – | – |
| O=C(O)COc1ccc(C(=O)CBr)cc1 | – | – | 9300 | 193 | 1.8 | – | – | – |
| O=C(CCl)c1ccc(F)cc1 | 0.22 | 380 | 580 | – | – | – | – | – |
| O=C(CBr)c1ccc(F)cc1 | 0.51 | 56 | 9100 | – | – | – | – | – |

— ChEMBL document CHEMBL1135556, “alpha-bromoacetophenone derivatives as neutral protein tyrosine phosphatase inhibitors: structure-Activity relationship” (Bioorg Med Chem Lett, 2002)
